Test results published in patent publication US20120232070A1, “Use of Indole Derivatives as Nurr-1 Activators for the Application Thereof as a Medicament for the Treatment of Parkinson's Disease” (Laboratoires Fournier SA, priority 2009, published 2012).
pEC50: −log10 of the molar value.

How the values were obtained:
[1] = target: hNurr1_RXRγFL (NURR1/RXRγ heterodimer) (Homo sapiens, UniProt P43354+P48443); experiment: Transactivation assay in Cos-7 cells, NURR-1-Gal4 / RXRγ, luciferase reporter; format: cell-based; conditions: for Emax: COS-7, read-out: hNurr1_RXRγFL Eff (%), efficacy in % relative to the reference XCT0135908 at 2·10^−5 M (=100%); for pEC50: Cos-7 cells, overnight incubation
Description: (§1) First, the capacity of the compounds according to the invention for acting as an activator of the heterodimers formed by the NURR-1 nuclear receptor and the RXR nuclear receptors was measured by an in vitro assay.
(§2) A transactivation assay was used as a primary screening assay. Cos-7 cells were co-transfected with a plasmid expressing a chimera of the human receptor NURR-1-Gal4, a plasmid expressing the human receptor RXR (RXRα or RXRγ receptor) and a reporter plasmid 5Gal4pGL3-TK-Luc. The transfections were performed by means of a chemical agent (Jet PEI).
(§3) The transfected cells were distributed in 384-well plates and left resting for 24 hours.
(§4) After 24 hours, the culture medium was changed. The products according to the invention were added (final concentration between 10^−4 and 3·10^−10 M) to the culture medium. After overnight incubation, luciferase expression was measured after addition of “SteadyGlo” according to the manufacturer's instructions (Promega).
(§5) 4-[[6-Methyl-2-phenyl-5-(2-prop enyl)-4-pyrimidinyl]amino]-benzoic acid (called XCT0135908, which was described in the article by Wallen-Mackenzie et al. published in Genes & Development 17, pages 3036-3047) at 2·10^−5 M (RXR agonist) was used as reference.
(§6) The levels of induction (designated by “efficiency”) were calculated relative to the baseline activity of each heterodimer. The results were expressed as a percentage of the level of induction relative to the level of induction obtained with the reference (the level of induction of the reference is arbitrarily taken to be 100%).

[2] = target: hNurr1_RXRαFL (NURR1/RXRα heterodimer) (Homo sapiens, UniProt P19793+P43354); experiment: Transactivation assay in Cos-7 cells, NURR-1-Gal4 / RXRα, luciferase reporter; format: cell-based; conditions: for Emax: COS-7, read-out: hNurr1_RXRαFL Eff (%), efficacy in % relative to the reference XCT0135908 at 2·10^−5 M (=100%); for pEC50: Cos-7 cells, overnight incubation; for hNurr1_RXRαFL Eff (%): efficacy in % relative to the reference XCT0135908 at 2·10^−5 M (=100%)
Description: as §1, §2, §3, §4, §5, §6

hNurr1_RXRαFL (NURR1/RXRα heterodimer), sequence (P19793 whole entry, the tested form may be a part): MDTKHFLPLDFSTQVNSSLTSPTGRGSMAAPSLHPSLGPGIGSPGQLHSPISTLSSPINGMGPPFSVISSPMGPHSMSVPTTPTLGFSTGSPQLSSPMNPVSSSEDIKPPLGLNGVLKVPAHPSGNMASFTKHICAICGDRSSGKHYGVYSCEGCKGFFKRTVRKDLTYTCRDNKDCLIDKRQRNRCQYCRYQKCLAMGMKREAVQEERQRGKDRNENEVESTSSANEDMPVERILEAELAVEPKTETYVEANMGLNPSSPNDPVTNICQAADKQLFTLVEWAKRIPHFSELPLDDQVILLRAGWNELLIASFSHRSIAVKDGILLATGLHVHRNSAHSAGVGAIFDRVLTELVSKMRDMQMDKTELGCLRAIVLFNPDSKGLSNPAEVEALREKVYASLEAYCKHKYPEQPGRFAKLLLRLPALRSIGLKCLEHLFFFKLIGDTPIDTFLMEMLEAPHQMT
hNurr1_RXRαFL (NURR1/RXRα heterodimer), sequence (P43354 328-598): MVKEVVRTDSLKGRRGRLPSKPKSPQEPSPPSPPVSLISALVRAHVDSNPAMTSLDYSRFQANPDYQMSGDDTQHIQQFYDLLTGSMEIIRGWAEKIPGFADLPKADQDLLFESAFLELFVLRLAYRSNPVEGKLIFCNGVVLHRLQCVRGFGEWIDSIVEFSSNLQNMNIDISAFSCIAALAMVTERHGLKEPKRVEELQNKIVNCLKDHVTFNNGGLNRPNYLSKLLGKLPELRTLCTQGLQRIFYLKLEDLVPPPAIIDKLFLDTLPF
hNurr1_RXRγFL (NURR1/RXRγ heterodimer), sequence (P43354 328-598): as above
hNurr1_RXRγFL (NURR1/RXRγ heterodimer), sequence (P48443 whole entry, the tested form may be a part): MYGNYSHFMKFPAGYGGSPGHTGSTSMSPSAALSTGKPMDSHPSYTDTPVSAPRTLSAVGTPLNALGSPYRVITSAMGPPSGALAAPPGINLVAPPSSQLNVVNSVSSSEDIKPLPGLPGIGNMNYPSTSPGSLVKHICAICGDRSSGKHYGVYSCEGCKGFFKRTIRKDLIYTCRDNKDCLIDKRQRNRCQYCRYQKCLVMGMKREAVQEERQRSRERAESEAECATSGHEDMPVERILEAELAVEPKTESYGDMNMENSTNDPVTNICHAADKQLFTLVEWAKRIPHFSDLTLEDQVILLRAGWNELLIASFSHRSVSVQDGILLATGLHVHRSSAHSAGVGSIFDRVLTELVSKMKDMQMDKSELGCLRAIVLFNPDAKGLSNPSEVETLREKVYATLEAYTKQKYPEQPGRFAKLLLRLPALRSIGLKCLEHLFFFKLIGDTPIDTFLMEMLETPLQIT

| SMILES | Emax [1] [%] | pEC50 [1] | Emax [2] [%] | pEC50 [2] | hNurr1_RXRαFL Eff (%) [2] [%] |
| --- | --- | --- | --- | --- | --- |
| COC(=O)c1ccc(Cc2c(F)c3cc(C(F)(F)F)ccc3n2S(=O)(=O)c2cccc(C(C)(C)C)c2)cc1 [Example 148, 4-[[1-[[3-(1,1-dimethylethyl)phenyl]sulfonyl]-3-fluoro-5-(trifluoromethyl)-1H-indol-2-yl]methyl]-benzoic acid, methyl ester] | 101 | 6.92 | 119 | 7.21 | – |
| CC(C)(C)c1cccc(S(=O)(=O)n2c(Cc3ccc(C(=O)O)cc3)cc3ccccc32)c1 [Example 195, 4-[[1-[[3-(1,1-dimethylethyl)phenyl]sulfonyl]-1H-indol-2-yl]methyl]-benzoic acid] | 56 | 5.93 | 57 | 6.20 | – |
| CC(C)COc1ccc(S(=O)(=O)n2c(Cc3ccc(C(=O)O)cc3)cc3cc(C(F)(F)F)ccc32)cc1 [Example 127, 4-[[1-[4-isobutoxy-phenylsulfonyl]-5-(trifluoromethyl)-1H-indol-2-yl]methyl]benzoic acid] | 45 | 6.24 | 48 | 6.58 | – |
| CN1CCOc2ccc(S(=O)(=O)n3c(Cc4ccc(C(=O)O)s4)cc4cc(C(F)(F)F)ccc43)cc21 [Example 73, 5-[[1-[[4-methyl-3,4-dihydro-2H-benzo[1,4]oxazin-6-yl]-sulfonyl]-5-trifluoromethyl-1H-indol-2-yl]methyl]-thiophene-2-carboxylic acid] | 89 | 7.18 | 94 | 7.43 | – |
| CN1C(=O)COc2ccc(S(=O)(=O)n3c(Cc4ccc(C(=O)O)cc4)cc4cc(C(F)(F)F)ccc43)cc21 [Example 125, 4-[[1-[4-methyl-3-oxo-3,4-dihydro-2H-benzo[1,4]oxazine-6-sulfonyl]-5-(trifluoromethyl)-1H-indol-2-yl]methyl]benzoic acid] | 101 | 6.14 | 61 | 6.09 | – |
| CC(C)(C)c1cccc(S(=O)(=O)n2c(Cc3cc(F)cc(C(=O)O)c3)cc3cc(C(F)(F)F)ccc32)c1 [Example 201, 3-[[1-[[3-(1,1-dimethylethyl)-phenyl]sulfonyl]-5-trifluoromethyl-1H-indol-2-yl]methyl]-5-fluorobenzoic acid] | – | – | – | – | 96 |
| COc1c(Cc2cc3cc(C(F)(F)F)ccc3n2S(=O)(=O)c2cccc(C(C)(C)C)c2)cccc1C(=O)O [Example 207, 3-[[1-[[3-(1,1-dimethylethyl)-phenyl]sulfonyl]-5-trifluoromethyl-1H-indol-2-yl]methyl]-2-methoxybenzoic acid] | – | – | 48 | 6.29 | – |
| COc1ccc(Cc2cc3cc(C(F)(F)F)ccc3n2S(=O)(=O)c2cccc(C(C)(C)C)c2)cc1C(=O)O [Example 202, 3-[[1-[[3-(1,1-dimethylethyl)-phenyl]sulfonyl]-5-trifluoromethyl-1H-indol-2-yl]methyl]-6-methoxybenzoic acid] | – | – | 104 | 7.72 | – |
| CN1CCOc2ccc(S(=O)(=O)n3c(Cc4cc(C(=O)O)co4)cc4cc(C(F)(F)F)ccc43)cc21 [Example 76, 5-[[1-[[4-methyl-3,4-dihydro-2H-benzo[1,4]oxazin-6-yl)-sulfonyl]-5-trifluoromethyl-1H-indol-2-yl]methyl]-furan-3-carboxylic acid] | – | – | 138 | 7.20 | – |
| CC(C)(C)c1cccc(S(=O)(=O)n2c(Cc3ccc(C(=O)O)cc3Cl)cc3cc(C(F)(F)F)ccc32)c1 [Example 205, 4-[[1-[[3-(1,1-dimethylethyl)-phenyl]sulfonyl]-5-trifluoromethyl-1H-indol-2-yl]methyl]-3-chlorobenzoic acid] | – | – | 75 | 7.01 | – |
| O=C(O)c1ccc(Cc2cc3cc(C(F)(F)F)ccc3n2S(=O)(=O)c2ccc(C(=O)N3CCOCC3)cc2)cc1 [Example 129, 4-[[1-[4-(morpholine-4-carbonyl)benzenesulfonyl]-5-(trifluoromethyl)-1H-indol-2-yl]methyl]benzoic acid] | – | – | 41 | 6.09 | – |
| CC(C)(C)c1cccc(S(=O)(=O)n2c(Cc3cc(C(=O)O)ccc3F)cc3cc(C(F)(F)F)ccc32)c1 [Example 199, 3-[[1-[[3-(1,1-dimethylethyl)-phenyl]sulfonyl]-5-trifluoromethyl-1H-indol-2-yl]methyl]-4-fluorobenzoic acid] | – | – | 118 | 7.66 | – |
| C=C(c1ccc(C(=O)O)s1)c1cc2cc(C(F)(F)F)ccc2n1S(=O)(=O)c1cccc(C(C)(C)C)c1 [Example 96, 5-[1-[1-[[3-(1,1-dimethylethyl)-phenyl]sulfonyl]-5-(trifluoromethyl)-1H-indol-2-yl]-1-ethenyl]-thiophene-2-carboxylic acid] | – | – | 54 | 6.47 | – |
| CN1CCOc2ccc(S(=O)(=O)n3c(Cc4ccc(C(=O)O)o4)cc4cc(C(F)(F)F)ccc43)cc21 [Example 75, 5-[[1-[(4-methyl-3,4-dihydro-2H-benzo[1,4]oxazin-6-yl)-sulfonyl]-5-trifluoromethyl-1H-indol-2-yl]methyl]-furan-2-carboxylic acid] | – | – | 114 | 7.18 | – |
| CC(C)(C)c1cccc(S(=O)(=O)n2c(C(=O)c3ccc(C(=O)O)s3)cc3cc(C(F)(F)F)ccc32)c1 [Example 94, 5-[[1-[[3-(1,1-dimethylethyl)-phenyl]sulfonyl]-5-trifluoromethyl-1H-indol-2-yl]-carbonyl]-thiophene-2-carboxylic acid] | – | – | 106 | 5.91 | – |
| O=C(O)c1cc(Cc2cc3cc(Cl)ccc3n2S(=O)(=O)c2ccc3c(c2)OCCO3)cs1 [Example 78] | – | – | 116 | 6.48 | – |
| Cn1cc(Cc2cc3cc(C(F)(F)F)ccc3n2S(=O)(=O)c2cccc(C(C)(C)C)c2)cc1C(=O)O [Example 87, 4-[[1-[[3-(1,1-dimethylethyl)-phenyl]sulfonyl]-5-trifluoromethyl-1H-indol-2-yl]methyl]-1-methyl-pyrrol-2-yl-carboxylic acid] | – | – | 123 | 7.52 | – |
| COc1ccc(C(=O)O)cc1Cc1cc2cc(C(F)(F)F)ccc2n1S(=O)(=O)c1cccc(C(C)(C)C)c1 [Example 208, 3-[[1-[[3-(1,1-dimethylethyl)-phenyl]sulfonyl]-5-trifluoromethyl-1H-indol-2-yl]methyl]-4-methoxybenzoic acid] | – | – | 31 | 6.62 | – |
| CC(C)c1ccc(S(=O)(=O)n2c(Cc3csc(C(=O)O)c3)cc3cc(C(F)(F)F)ccc32)cc1 [Example 72, 4-[[1-[[4-(1-methylethyl)-phenyl]sulfonyl]-5-trifluoromethyl-1H-indol-2-yl]methyl]-thiophene-2-carboxylic acid] | – | – | 131 | 7.14 | – |
| CC(C)(C)c1cccc(S(=O)(=O)n2c(C(C)(O)c3ccc(C(=O)O)s3)cc3cc(C(F)(F)F)ccc32)c1 (stereo not shown) [Example 95, 5-[1-[1-[[3-(1,1-dimethylethyl)-phenyl]sulfonyl]-5-(trifluoromethyl)-1H-indol-2-yl]-1-hydroxyethyl]-thiophene-2-carboxylic acid] | – | – | 99 | 6.68 | – |
| O=C(O)c1ccc(Cc2cc3cc(Cl)ccc3n2S(=O)(=O)c2ccc3c(c2)OCCO3)o1 [Example 79, 5-[[5-chloro-1-[(2,3-dihydro-benzo[1,4]dioxin-6-yl)sulfonyl]-1H-indol-2-yl]methyl]-furan-2-carboxylic acid] | – | – | 147 | 6.14 | – |
| CN1CCOc2ccc(S(=O)(=O)n3c(Cc4csc(C(=O)O)c4)cc4cc(C(F)(F)F)ccc43)cc21 [Example 74, 4-[[1-[(4-methyl-3,4-dihydro-2H-benzo[1,4]oxazin-6-yl)-sulfonyl]-5-trifluoromethyl-1H-indol-2-yl]methyl]-thiophene-2-carboxylic acid] | – | – | 150 | 7.40 | – |
| CC(C)(C)c1cccc(S(=O)(=O)n2c(Cc3cc(F)cc(C(=O)O)c3)cc3cc(C(F)(F)F)ccc32)c1 [Example 200, 3-[[1-[[3-(1,1-dimethylethyl)-phenyl]sulfonyl]-5-trifluoromethyl-1H-indol-2-yl]methyl]-5-fluorobenzoic acid] | – | – | 93 | – | – |
| CC(C)(C)c1cccc(S(=O)(=O)n2c(C(O)c3ccc(C(=O)O)s3)cc3cc(C(F)(F)F)ccc32)c1 (stereo not shown) [Example 91, 5-[[1-[[3-(1,1-dimethylethyl)-phenyl]sulfonyl]-5-trifluoromethyl-1H-indol-2-yl]hydroxymethyl]-thiophene-2-carboxylic acid] | – | – | 100 | 7.14 | – |
| CC(C)(C)c1cccc(S(=O)(=O)n2c(Cc3cc(C(=O)O)c(F)cc3Cl)cc3cc(C(F)(F)F)ccc32)c1 [Example 203, 3-[[1-[[3-(1,1-dimethylethyl)-phenyl]sulfonyl]-5-trifluoromethyl-M-indol-2-yl]methyl]-4-chloro-6-fluorobenzoic acid] | – | – | – | 7.07 | 83 |
